Where “and” joins values, the source holds several entries; their conditions need not be identical. Identical values can stand only once. Like-named read-outs stand apart in the source and are kept apart here.
Experiments:
[1] = target: T1, human mu opioid receptor (Homo sapiens, UniProt P35372); experiment: Human Mu Opioid Receptor Binding Assay (CHO membranes, 3H-Damgo)
T1 construct: purchased Perkin Elmer RBHOMM400UA; host or cells: Chinese Hamster Ovary cells (recombinant expression)
Outline: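 Radioligand displacement of ³H-Damgo (diluted to 3.6 nM pre-mix) from recombinant human mu receptor in CHO membranes, 2 h, room temperature, 50 mM Tris pH 7.5 with 5 mM MgCl2. Bound label read by filtration and scintillation counting; 1 μM unlabelled Damgo defines nonspecific binding.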

[2] = target: T2, delta opioid receptor (Rattus norvegicus, UniProt P33533); experiment: Rat Brain Delta Opioid Receptor Binding Assay ([3H]DPDPE); details: rat forebrain membranes, margin of error 10-20%
T2 construct: from tissue; host or cells: forebrain of male Wistar rats
Outline: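 Rat (male Wistar) forebrain membranes in 50 mM Tris-HCl pH 7.4 with 5 mM MgCl2, incubated with ~4 nM [3H]DPDPE for 2.5 h at 25 °C. Bound ligand collected by filtration and scintillation counting. Single-concentration data given as % inhibition of specific binding; concentration series fitted to Ki.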

[3] = target: T3, mu opioid receptor (Rattus norvegicus, UniProt P33535); experiment: Rat Brain Mu Opioid Receptor Binding Assay (and Version 2a, [3H]DAMGO); details: rat forebrain membranes, margin of error 10-20%
T3 construct: from tissue; host or cells: forebrain of male Wistar rats
Outline: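 Displacement of the mu-selective radioligand [3H]DAMGO (0.8 nM) measured by filtration and scintillation counting after 2.5 h at 25° C. Membranes came from male Wistar rat forebrain in Tris-HCl (50 mM, pH 7.4) plus 5 mM MgCl2; Ki derived from concentration–response, % inhibition for single doses.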

T3 sequence (P33535 whole entry): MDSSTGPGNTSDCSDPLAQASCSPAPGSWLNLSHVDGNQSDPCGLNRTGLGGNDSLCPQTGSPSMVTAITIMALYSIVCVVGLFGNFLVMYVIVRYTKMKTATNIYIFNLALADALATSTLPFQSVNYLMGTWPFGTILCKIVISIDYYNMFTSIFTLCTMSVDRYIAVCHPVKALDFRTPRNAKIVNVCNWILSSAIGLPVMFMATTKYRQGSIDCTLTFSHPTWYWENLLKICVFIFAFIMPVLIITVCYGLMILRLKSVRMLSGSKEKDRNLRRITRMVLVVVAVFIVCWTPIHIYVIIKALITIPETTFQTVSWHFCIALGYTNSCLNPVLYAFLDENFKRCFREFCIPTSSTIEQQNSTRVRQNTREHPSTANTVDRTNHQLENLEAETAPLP
T1 sequence (P35372 whole entry): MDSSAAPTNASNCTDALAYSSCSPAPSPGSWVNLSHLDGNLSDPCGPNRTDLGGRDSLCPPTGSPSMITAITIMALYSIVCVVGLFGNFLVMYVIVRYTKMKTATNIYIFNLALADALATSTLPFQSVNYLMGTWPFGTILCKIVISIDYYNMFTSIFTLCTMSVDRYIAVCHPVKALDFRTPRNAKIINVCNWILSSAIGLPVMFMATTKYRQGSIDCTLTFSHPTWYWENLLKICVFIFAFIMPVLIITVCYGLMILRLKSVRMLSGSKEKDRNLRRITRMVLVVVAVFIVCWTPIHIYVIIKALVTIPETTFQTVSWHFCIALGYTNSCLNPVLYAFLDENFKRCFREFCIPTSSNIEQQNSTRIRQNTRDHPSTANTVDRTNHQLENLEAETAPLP
T2 sequence (P33533 whole entry): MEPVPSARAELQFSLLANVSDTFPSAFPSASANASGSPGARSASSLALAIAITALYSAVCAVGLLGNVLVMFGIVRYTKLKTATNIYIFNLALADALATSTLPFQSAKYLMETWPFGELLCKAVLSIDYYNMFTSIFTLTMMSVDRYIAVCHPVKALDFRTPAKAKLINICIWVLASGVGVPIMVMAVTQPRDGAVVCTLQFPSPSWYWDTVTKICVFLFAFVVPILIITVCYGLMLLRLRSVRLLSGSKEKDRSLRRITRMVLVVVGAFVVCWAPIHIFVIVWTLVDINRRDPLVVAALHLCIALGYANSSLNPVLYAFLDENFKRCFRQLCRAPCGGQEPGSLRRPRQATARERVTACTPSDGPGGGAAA

Row | Structure (SMILES) | Ki ([1]; read-out: hKi μ) | Ki ([2]; read-out: r Ki δ) | Ki ([3]; read-out: r Ki μ) | Ki ([1]; hKi μ) [nM] | Ki ([2]; r Ki δ) [nM] | Ki ([3]; r Ki μ)
1 | COc1ccc(CN(C(=O)[C@@H](N)Cc2ccc(C(N)=O)cc2)[C@@H](C)c2nc(-c3ccccc3)c[nH]2)cc1C(=O)O [Cpd 4] | 5.5 nM | 11 nM and 17 nM | 2.41 nM |  |  | 
2 | COc1ccc(CN(Cc2nc(-c3ccccc3)c[nH]2)C(=O)[C@@H](N)Cc2ccc(C(N)=O)cc2)cc1C(=O)O [Cpd 5] | 3.9 nM | 630 nM and 183 nM | 1.19 nM |  |  | 
3 | COc1ccc(CN(C(=O)[C@@H](N)Cc2c(C)cc(C(N)=O)cc2C)[C@@H](C)c2nc(-c3ccccc3)c[nH]2)cc1-c1nnn[nH]1 [Cpd 8] | 2.5 nM and 4.4 nM | 0.43 nM and 0.15 nM | 0.51 nM |  |  | 
4 | COC(=O)c1cc(CN(C(=O)[C@@H](N)Cc2c(C)cc(C(N)=O)cc2C)[C@@H](C)c2nc(-c3ccccc3)c[nH]2)ccc1OC [Cpd 17] | 2.2 nM | 60 nM | 0.22 nM |  |  | 
5 | COc1ccc(CN(C(=O)[C@@H](N)Cc2c(C)cc(C(N)=O)cc2C)[C@@H](C)c2nc(-c3ccccc3)c[nH]2)cc1C(=O)O [Cpd 18] |  |  |  | 1.7 | 0.38 to 14.4 | 0.75 nM and 1.1 nM
6 | Cc1cc(O)cc(C)c1C[C@H](N)C(=O)N(Cc1cccc(C(=O)O)c1)[C@@H](C)c1nc(-c2ccccc2)c[nH]1 [Cpd 48] | 0.4 nM |  | 0.14 nM |  |  | 
7 | Cc1cc(C(N)=O)cc(C)c1C[C@H](N)C(=O)N(Cc1ccc(C(=O)O)cc1)[C@@H](C)c1nc(-c2ccccc2)c[nH]1 [Cpd 50] | 1.4 nM | 0.58 nM | 1.68 nM |  |  | 
8 | COc1ccc(CN(C(=O)[C@@H](N)Cc2c(C)cc(C(N)=O)cc2C)[C@@H](C)c2nc(-c3ccccc3)c[nH]2)cc1OC [Cpd 75] | 2.6 nM | 0.66 nM | 0.51 nM |  |  | 
9 | Cc1cc(C(N)=O)cc(C)c1C[C@H](N)C(=O)N(Cc1ccccc1)[C@@H](C)c1nc(-c2ccccc2)c[nH]1 [Cpd 114] | 1.39 nM | 12 nM | 0.26 nM |  |  | 
10 | Cc1cc(O)cc(C)c1C[C@H](N)C(=O)N(Cc1nc(-c2ccc(F)cc2)c(C)[nH]1)C(C)C [Cpd 163] | 0.67 nM | 4.51 nM | 0.03 nM |  |  | 
11 | Cc1cc(O)cc(C)c1C[C@H](N)C(=O)N(Cc1nc(-c2cc(C(F)(F)F)cc(C(F)(F)F)c2)c(C)[nH]1)C(C)C [Cpd 164] | 16.3 nM | 120 nM | 0.38 nM |  |  | 
12 | Cc1ccccc1-c1nc(CN(C(=O)[C@@H](N)Cc2c(C)cc(O)cc2C)C(C)C)[nH]c1C [Cpd 165] | 0.45 nM | 23.6 nM | 0.07 nM |  |  | 
13 | Cc1cc(O)cc(C)c1C[C@H](N)C(=O)N(Cc1nc(-c2ccccc2)c(C)[nH]1)C(C)C [Cpd 166] | 0.39 nM and 0.5 nM | 5.58 nM and 12 nM | 0.03 nM and 0.07 nM |  |  | 
14 | Cc1cc(O)cc(C)c1C[C@H](N)C(=O)N(Cc1nc(-c2ccccc2)c[nH]1)C1CCCCC1 [Cpd 190] |  | 13.8 nM | 2.61 nM |  |  | 
15 | Cc1cc(O)cc(C)c1C[C@H](N)C(=O)N(Cc1nc(-c2ccccc2)c[nH]1)CC1CC1 [Cpd 192] | 0.62 nM | 7.64 nM | 0.09 nM |  |  | 
16 | Cc1cc(O)cc(C)c1C[C@H](N)C(=O)N(Cc1nc(-c2ccccc2)c[nH]1)C(C)C [Cpd 194] | 0.13 nM | 14.8 nM | 0.06 nM |  |  | 
17 | CC(C)N(Cc1nc(-c2ccccc2)c[nH]1)C(=O)[C@@H](N)Cc1ccc(O)cc1 [Cpd 195] | 9.8 nM | 306 nM | 9.29 nM |  |  | 
18 | Cc1cc(O)cc(C)c1C[C@H](N)C(=O)N(C)Cc1nc(-c2ccccc2)c[nH]1 [Cpd 199] | 0.29 nM | 26.3 nM | 0.3 nM |  |  | 
19 | C[C@H](c1nc(-c2ccccc2)c[nH]1)N(C)C(=O)[C@@H](N)Cc1ccc(C(N)=O)cc1 [Cpd 203] | 13.7 nM | 49.3 nM | 29.1 nM |  |  | 
20 | Cc1cc(O)cc(C)c1C[C@H](N)C(=O)N(C)[C@@H](C)c1nc(Cc2ccccc2)c[nH]1 [Cpd 205] |  | 4.44 nM | 0.14 nM |  |  | 

Row | Structure (SMILES) | Ki ([1]; read-out: hKi μ) | Ki ([2]; read-out: r Ki δ) | Ki ([3]; read-out: r Ki μ) | Ki ([1]; hKi μ) [nM] | Ki ([2]; r Ki δ) [nM] | Ki ([3]; r Ki μ)
21 | Cc1cc(O)cc(C)c1C[C@H](N)C(=O)N(C)[C@H](C)c1nc(-c2ccccc2)c[nH]1 [Cpd 206] |  | 5.8 nM | 0.2 nM |  |  | 
22 | Cc1cc(O)cc(C)c1C[C@H](N)C(=O)N(C)[C@@H](C)c1nc(-c2ccccc2)c[nH]1 [Cpd 207] |  | 5.3 nM and 5.37 nM and 14.7 nM | 0.05 nM and 0.08 nM and 0.1 nM |  |  | 
23 | CCN(C(=O)[C@@H](N)Cc1ccc(O)cc1)[C@H](C)c1nc(-c2ccccc2)c[nH]1 [Cpd 214] | 29 nM | 308 nM | 44 nM |  |  | 
24 | CCN(C(=O)[C@@H](N)Cc1ccc(O)cc1)[C@@H](C)c1nc(-c2ccccc2)c[nH]1 [Cpd 215] | 1.5 nM | 126 nM | 0.43 nM |  |  | 
25 | CCN(C(=O)[C@@H](N)Cc1c(C)cc(O)cc1C)[C@@H](C)c1nc(-c2ccccc2)c[nH]1 [Cpd 216] |  | 1.14 nM | 0.04 nM |  |  | 
26 | CCN(C(=O)[C@@H](N)Cc1c(C)cc(O)cc1C)[C@H](C)c1nc(-c2ccccc2)c[nH]1 [Cpd 217] |  | 5.4 nM | 1.08 nM |  |  | 
27 | Cc1cc(O)cc(C)c1C[C@H](N)C(=O)N(Cc1ccccc1)[C@@H](C)c1nc(-c2ccccc2)c[nH]1 [Cpd 218] | 3.92 nM | 1.45 nM | 0.03 nM |  |  | 
28 | C[C@@H](c1nc(-c2ccccc2)c[nH]1)N(Cc1ccccc1)C(=O)[C@@H](N)Cc1ccc(O)cc1 [Cpd 219] | 16.2 nM | 87.8 nM | 0.87 nM |  |  | 
29 | C[C@H](c1nc(-c2ccccc2)c[nH]1)N(Cc1ccccc1)C(=O)[C@@H](N)Cc1ccc(O)cc1 [Cpd 221] | 0.42 nM | 9.58 nM | 0.36 nM |  |  | 
30 | CC(C)N(C(=O)[C@@H](N)Cc1ccc(O)cc1)[C@@H](C)c1nc(-c2ccccc2)c[nH]1 [Cpd 225] | 1.4 nM | 112 nM | 0.73 nM |  |  | 
31 | Cc1cc(C(N)=O)cc(C)c1C[C@H](N)C(=O)N(Cc1cccc(C(=O)O)c1)[C@@H](C)c1nc(-c2ccccc2)c[nH]1 [Cpd 227] | 1.92 nM | 0.08 nM and 0.46 nM | 0.96 nM |  |  | 
32 | Cc1cc(C(N)=O)cc(C)c1C[C@H](N)C(=O)N(Cc1cccc(-c2nnn[nH]2)c1)[C@@H](C)c1nc(-c2ccccc2)c[nH]1 [Cpd 242] | 2.35 nM | 0.18 nM | 0.59 nM |  |  | 
33 | Cc1cc(O)cc(C)c1C[C@H](N)C(=O)N(Cc1ccnc2ccccc12)[C@@H](C)c1nc(-c2ccccc2)c[nH]1 [Cpd 246] | 5.63 nM | 0.035 nM | 0.15 nM |  |  | 
34 | Cc1cc(C(N)=O)cc(C)c1C[C@H](N)C(=O)N(Cc1ccc(C(=O)O)o1)[C@@H](C)c1nc(-c2ccccc2)c[nH]1 [Cpd 256] | 2 nM | 3.82 nM | 7.08 nM |  |  | 
35 | COC(=O)c1ccc(CN(C(=O)[C@@H](N)Cc2c(C)cc(C(N)=O)cc2C)[C@@H](C)c2nc(-c3ccccc3)c[nH]2)o1 [Cpd 257] | 3.4 nM |  | 1.22 nM |  |  | 
36 | COc1ccc(CN(C(=O)[C@@H](N)Cc2c(C)cc(O)cc2C)[C@@H](C)c2nc(-c3ccccc3)c[nH]2)cc1C(=O)O [Cpd 260] | 0.58 nM | 0.13 nM | 0.24 nM |  |  | 
37 | COc1ccc(CN(C(=O)[C@@H](N)Cc2ccc(O)cc2)[C@@H](C)c2nc(-c3ccccc3)c[nH]2)cc1C(=O)O [Cpd 261] | 2.58 nM and 1.3 nM | 8.01 nM | 0.79 nM |  |  | 
38 | COc1ccc(CN(C(=O)[C@@H](N)Cc2c(C)cc(C(N)=O)cc2C)[C@@H](C)c2nc(-c3ccc(I)cc3)c[nH]2)cc1C(=O)O [Cpd 289] | 2.2 nM |  | 0.25 nM |  |  | 
39 | COC(=O)c1ccc(CN(C(=O)[C@@H](N)Cc2ccc(C(N)=O)cc2)[C@@H](C)c2nc(-c3ccccc3)c[nH]2)o1 [Cpd 303] | 3.8 nM |  | 3.87 nM |  |  | 
